According to paper PMC7215089, “Identification of a Conserved Prophenoloxidase Activation Pathway in Cotton Bollworm Helicoverpa armigera” (Frontiers in Immunology, 2020):

Molecular target: T1, PPO / PO (PPO1-PPO2 heterodimer) (Helicoverpa armigera, UniProt A0A290U614+Q2VIY6)
T1 sequence (A0A290U614 1-684): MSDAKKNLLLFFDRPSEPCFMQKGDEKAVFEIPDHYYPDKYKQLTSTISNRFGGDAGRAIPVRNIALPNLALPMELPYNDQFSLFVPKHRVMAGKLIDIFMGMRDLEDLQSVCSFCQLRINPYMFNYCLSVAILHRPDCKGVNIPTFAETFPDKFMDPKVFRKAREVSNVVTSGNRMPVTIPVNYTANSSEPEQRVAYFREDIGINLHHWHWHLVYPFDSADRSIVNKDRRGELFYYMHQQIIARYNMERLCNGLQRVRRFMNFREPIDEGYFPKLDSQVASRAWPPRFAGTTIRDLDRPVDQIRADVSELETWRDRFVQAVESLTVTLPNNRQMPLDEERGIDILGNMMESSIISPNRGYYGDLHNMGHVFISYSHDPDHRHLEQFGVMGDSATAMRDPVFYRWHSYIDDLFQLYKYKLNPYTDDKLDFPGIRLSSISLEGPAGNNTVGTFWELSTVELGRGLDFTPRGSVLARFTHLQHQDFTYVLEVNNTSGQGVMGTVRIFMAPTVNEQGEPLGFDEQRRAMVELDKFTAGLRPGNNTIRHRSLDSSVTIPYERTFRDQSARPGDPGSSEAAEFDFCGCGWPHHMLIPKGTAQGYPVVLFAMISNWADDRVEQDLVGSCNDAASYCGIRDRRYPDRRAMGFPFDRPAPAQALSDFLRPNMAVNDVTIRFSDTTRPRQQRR
T1 sequence (Q2VIY6 1-698): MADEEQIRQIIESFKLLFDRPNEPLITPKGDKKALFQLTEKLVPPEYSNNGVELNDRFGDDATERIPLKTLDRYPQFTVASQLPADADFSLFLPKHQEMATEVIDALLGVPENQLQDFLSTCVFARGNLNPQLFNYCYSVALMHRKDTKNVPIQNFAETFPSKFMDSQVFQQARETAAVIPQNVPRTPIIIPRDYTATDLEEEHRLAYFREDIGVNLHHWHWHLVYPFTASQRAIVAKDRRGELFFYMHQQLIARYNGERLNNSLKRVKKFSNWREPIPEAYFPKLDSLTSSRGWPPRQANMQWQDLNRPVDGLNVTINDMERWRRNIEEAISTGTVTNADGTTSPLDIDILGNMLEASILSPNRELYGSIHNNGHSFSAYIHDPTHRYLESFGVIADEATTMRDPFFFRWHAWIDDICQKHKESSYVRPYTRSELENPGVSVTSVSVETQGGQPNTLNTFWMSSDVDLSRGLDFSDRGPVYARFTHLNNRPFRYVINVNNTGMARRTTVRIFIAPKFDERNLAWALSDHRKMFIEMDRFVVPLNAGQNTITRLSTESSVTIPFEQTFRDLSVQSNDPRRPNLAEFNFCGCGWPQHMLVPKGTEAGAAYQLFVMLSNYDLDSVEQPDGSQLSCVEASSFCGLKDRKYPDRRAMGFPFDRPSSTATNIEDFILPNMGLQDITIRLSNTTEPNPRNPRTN
Assay: phenoloxidase assay, dopamine chrome formation
Format: biochemical
Details: PPO activated by CPC

NCCc1ccc(O)c(O)c1 [dopamine]
phenoloxidase assay, dopamine chrome formation: production of dopamine chrome (or dopachrome) from dopamine (or dopa)
